Assays:
[1] = tested on: IRE1-regulated Erdj4, PERK-regulated Atf4; experiment: qPCR for IRE1 and PERK target genes in mouse hearts; format: in vivo; conditions: WT or ATF6 cKO mice, 24 hours after treatment, LV
Procedure: (§1) Immunoblot analysis. NRVM were lysed and subjected to immunoblot analysis, as previously described^10. In brief, cultures were lysed with VC lysis buffer made from 20 mM Tris-HCl (pH 7.5), 150 mM NaCl, 0.1% SDS, 1% Triton X-100™, protease inhibitor cocktail (Roche Diagnostics, Indianapolis, IN) and phosphatase inhibitor cocktail (Roche Diagnostics). Samples comprising 10 μg of protein were mixed with Laemmli sample buffer, boiled, then subjected to SDS-PAGE followed by transfer onto PVDF membranes for immunoblotting. Full-length Atf6 (p90) was detected with an antibody from SAB Signalway™ Antibody (1:1000, cat #32008, College Park, MD), while active Atf6 (p50) was detected with an antibody from Proteintech™ (1:1000, cat #24169-1-AP, Rosemont, IL). […] The oxidation state of ATF6 in NRVM treated with compound 147 was analyzed by gel-shift essentially as previously described^32. […]
(§2) Malondialdehyde assay. Lipid peroxidation was determined by measuring the levels of malondialdehyde (MDA) using a TBARS assay kit (Cayman Chemical, Ann Arbor, MI) according to the manufacturer's instructions as previously described^10. […]

[2] = tested on: acute myocardial I/R injury; experiment: acute in vivo myocardial ischemia/reperfusion; parameters: species or system mouse; conditions: acute I/R protocol, 24 h
Procedure: In vivo myocardial ischemia/reperfusion. Surgical myocardial I/R was performed as previously described^10. Briefly, mice were anesthetized with 2% isoflurane and a thoracotomy was performed to isolate the heart, after which the left anterior descending coronary artery (LAD) was ligated with a 6-0 Prolene™ suture for 30 minutes, followed by suture removal and either 24 hours or 7 days of reperfusion. Regional ischemia was confirmed by visual inspection of the discoloration of the myocardium distal of the ligation, which is characteristic of impaired blood flow. Animals assigned as shams underwent the thoracotomy surgical procedure, but weren't subjected to LAD ligation. […] The AAR, INF and left ventricle area (LV) from digitized images of heart sections were analyzed using ImageJ software. […] A separate investigator analyzed the AAR, INF, and LV and was blinded to the animal trial assignments. […] Blood was placed in heparin- and EDTA-coated vacutainer (BD Vacutainer) and centrifuged at 3000 rpm for 10 minutes and plasma samples were analyzed for cardiac troponin I with a Mouse cTnI High-Sensitivity ELISA kit (Life Diagnostics, Inc.).
Transthoracic echocardiography. […] Diastolic function was determined as previously described^33. […] Waveforms were recorded and analyzed for peak early- and late-diastolic transmitral flow velocities corresponding to E and A waves, respectively. […]

[3] = general in vivo properties (brain penetration, tolerance)
Procedure: (§3) Malondialdehyde assay. Lipid peroxidation was determined by measuring the levels of malondialdehyde (MDA) using a TBARS assay kit (Cayman Chemical, Ann Arbor, MI) according to the manufacturer's instructions as previously described^10. In vivo experimental compound administration. Control compound and compound 147 were suspended to a final concentration of 0.2 mg/mL in 10% DMSO. Mice were weighed prior to administration of compounds and, subsequently, non-anesthetized 10-week old WT or ATF6 cKO mice were injected with ˜250 μL of stock compounds via the lateral tail vein depending upon body mass to ensure accurate administration of 2 mg/kg. […] Since compound 147 and tunicamycin have similar molecular weights, this dose of compound 147 is near the molar equivalent of the typical dose of tunicamycin. It is relevant to note that for compound 147, a dose of 2 mg/kg is similar to FDA-approved cardiovascular drugs, such as many angiotensin-converting enzyme (ACE) inhibitors, which are used in small-animal models at 2 mg/kg^42.

[4] = tested on: hearts of mice that were not subjected to I/R; experiment: 7-day dosing protocols in mice not subjected to I/R: cardiac performance and safety; format: in vivo, mouse
Procedure: In vivo myocardial ischemia/reperfusion. Surgical myocardial I/R was performed as previously described^10. Briefly, mice were anesthetized with 2% isoflurane and a thoracotomy was performed to isolate the heart, after which the left anterior descending coronary artery (LAD) was ligated with a 6-0 Prolene™ suture for 30 minutes, followed by suture removal and either 24 hours or 7 days of reperfusion. Regional ischemia was confirmed by visual inspection of the discoloration of the myocardium distal of the ligation, which is characteristic of impaired blood flow. Animals assigned as shams underwent the thoracotomy surgical procedure, but weren't subjected to LAD ligation. Animals were randomly assigned to trial groups prior to outset of the experiment by a single investigator, while the surgeon and data analyst were blinded to trial assignments. Animals designated to receive either control compound or compound 147 at the time of reperfusion received 2 mg/kg of respective compounds via IV injection 5 minutes prior to release of the ligation. Twenty-four hours after reperfusion, 1% of Evans Blue was injected apically to determine the area at risk (AAR). Hearts were harvested and 1-mm sections of the hearts were stained with 1% 2,3,5-triphenyltetrazolium chloride (TTC) to measure the infarcted area (INF) as previously described^36. The AAR, INF and left ventricle area (LV) from digitized images of heart sections were analyzed using ImageJ software. […] A separate investigator analyzed the AAR, INF, and LV and was blinded to the animal trial assignments. […] Blood was placed in heparin- and EDTA-coated vacutainer (BD Vacutainer) and centrifuged at 3000 rpm for 10 minutes and plasma samples were analyzed for cardiac troponin I with a Mouse cTnI High-Sensitivity ELISA kit (Life Diagnostics, Inc.).
Hepatic triglyceride assay. Hepatic triglyceride assay was performed as previously described^39. Briefly, livers were harvested and 10 mg extracts were homogenized and analyzed for triglyceride content using the EnzyChrom Triglyceride Assay Kit™ (BioAssay Systems).
Transthoracic echocardiography. Transthoracic echocardiography was performed using an ultrasound imaging system (Vevo 2100 System™, Fujifilm VisualSonics, Toronto, Ontario, Canada) as described^40. Diastolic function was determined as previously described^33. Briefly, echocardiography coupled with pulse-wave Doppler was used to visualize transmitral flow velocities and were recorded by imaging the mitral orifice at the point of the mitral leaflets. Waveforms were recorded and analyzed for peak early- and late-diastolic transmitral flow velocities corresponding to E and A waves, respectively.
as §3, with “It is relevant to note that for compound 147, a dose of 2 mg/kg is similar to FDA-approved cardiovascular drugs, such as many angiotensin-converting enzyme (ACE) inhibitors, which are used in small-animal models at 2 mg/kg^42.” left out

[5] = tested on: ATF6-regulated genes Grp78 and Cat; experiment: ATF6 target gene induction in mouse tissues after intravenous administration (qPCR, IHC, immunoblot); conditions: in vivo, mouse heart
Procedure: as §1, §2

[6] = Trials 1-3, 7 days, mice without I/R

For `Cc1ccc(O)c(NC(=O)CCc2ccccc2)c1` [compound 147], the “expression levels of Erdj4 or Atf4 in hearts” value [1] was “no effect”, the “cardiac performance, chamber size, or pathological hypertrophy by echocardiography” value [2] was “no effect” and the “blood brain barrier crossing” value [3] was “has the capacity to cross the blood brain barrier”. The “toxicity or deleterious off-target effects” value [3] was “does not exhibit any apparent toxicity or deleterious off-target effects”, the “expression of pathology-associated genes Nppa, Nppb, Col1a1 or Myh7” value [4, 6] was “None of the dosing protocols resulted in” and the “increased plasma cTnI” value [4, 6] was “None of the dosing protocols resulted in”. For the same compound, the “pathological cardiac hypertrophy (heart weight to body weight)” value [4, 6] was “None of the dosing protocols resulted in”, the “liver or kidney deficits (steatosis by hepatic triglyceride accumulation, glomerular filtration rate by creatinine clearance)” value ([4]; any of the trials, data not shown) was “no apparent deficits were observed” and the cardiotoxicity ([4]; over the course of 7 days) was “does not induce cardiotoxicity”. The “duration of ATF6-target gene induction” value [5] was roughly 3 days.
